The values that follow come from patent US20230075856A1, “CYCLIC SULFAMIDE COMPOUNDS FOR TREATMENT OF HBV” (Assembly Biosciences, Inc., priority 2018, published 2023).

In the first test the test system is HBV viral load production from HepAD38 cells. As to the kind of experiment: Viral production from HepAD38 cells: viral load in supernatant by qPCR of the HBV core sequence. The test is classed as cell-based. The note with it: 5 days incubation, qPCR of supernatant HBV DNA vs DMSO control, read-out: viral load lowering EC50 (Activity). The procedure: Assay Measuring Activity of Test Compounds on Viral Production from HepAD38 Cells
HepAD38 cells grown in a T-150 flask (Corning, cat #: 430825) with Growth Medium (DMEM/F12 […] (Hyclone, cat #: SH30023.02), 1× Pen/Strep (Invitrogen, cat #: 15140-122), 10% FBS (Tissue Culture Biologics, cat #: 101), […] G418 (Alfa Aesar, cat #: J62671), 1 μg/mL Tetracycline (Teknova, cat #: T3320)) were detached with 0.25% trypsin-EDTA (Invitrogen, cat #: 25200-056). Tetracycline-free treatment medium (15 mL DMEM/F12 (1:1) 1× Pen/step, with 2% FBS, Tet-system approved (Clontech, cat #: 631106) were then added to mix, transferred into a 50 ml conical tube (Falcon, cat #: 21008-918,) and spun at 1300 rpm for 5 min. Pelleted cells were then re-suspended/washed with 50 mL of 1×DPBS (Invitrogen, cat #: 14190-136) 2 times and 50 mL treatment medium twice. HepAD38 cells were then re-suspended with 10 mL of treatment medium, syringed and counted. Wells of 96-well clear bottom TC plate (Corning, cat #: 3904,) were seeded at 50,000 cells/well in 180 μL of treatment medium, and 20 μL of either 10% DMSO (Sigma, cat #: D4540) as controls or a 10× solution of test compounds in 10% DMSO in treatment media was added for a final compound concentration starting at 10 μM, and plates were incubated in 5% CO2 incubator at 37° C. for 5 days.
Subsequently viral load production was assayed by quantitative PCR (qPCR) of the HBV core sequence. PCR reaction mixture containing forward primers HBV-f 5′-CTGTGCCTTGGGTGGCTIT-3′ (IDT DNA), Reverse primers HBV-r 5′-[…]-3′ (IDT DNA), Fluorescent TaqMan™ Probes HBV-probe 5′-FAM/AGCTCCAAA/ZEN/[…]/3IABkFQ-3′ (IDT DNA), 10 μL/well of PerfeCTa® qPCR ToughMix® (Quanta Biosciences, Cat #: 95114-05K), and 6 μL/well of DEPC water (Alfa Aesar, cat #: J62087) was prepared. Four μL of supernatant was added to 16 μL of the reaction mixture in a qPCR plate (Applied Biosytems, Cat #: 4309849), sealed with a film (Applied Biosystems, Cat #: 4311971), centrifuged for a few seconds, and subsequently run on an Applied Biosystems VIIA7. The PCR mixture was incubated at 45° C. for 5 min, then 95° C. for 10 min, followed by 40 cycles of 10 seconds at 95° C. and 20 seconds at 60° C. Viral load was quantified against known HBV DNA standards by using ViiA™ 7 Software. Viral load in the supernatant from wells with treated cells were compared against viral load in supernatant from DMSO control wells (≥3 per plate). Cell viability assay was performed with CellTiter-Glo Luminescent Cell Viability Assay (Promega, cat #: G7573) with modification. Mixed appropriate amount of CellTiter-Glo (CTG) 1×DPBS in a 1:1 ratio, added 100 uL of the mixture to each well followed completely removal of all supernatant in each well without touching cell surface. Incubated the plate at room temperature for 10 min on an orbital shaker, and then read the plate with a plate reader (TECAN M1000 or Envision). EC50 or CC50 values were calculated through curve-fitting of the four-parameter nonlinear-logistic-regression model (GraphPad Prism or Dotmatics). CC50 values were all >10 μM.
A general note: Quantitative PCR measures a nucleic acid by following its amplification.
Turning to `COC(=O)N1CCC(NC(=O)C2CC(C(=O)Nc3ccc(F)c(Cl)c3)N(CC(F)(F)F)S(=O)(=O)N2)CC1` (single isomer, unassigned; isomer-b) [Compound 893-ISOMER-B, methyl 4-[[5-[(3-chloro-4-fluroo-phenyl)carbamoyl]-1,1-dioxo-6-(2,2,2-trifluoroethyl)-1,2,6-thiadiazinane-3-carbonyl]amino]piperidine-1-carboxylate], the concentration giving a half-maximal response (EC50) lay within 100 to 10000 nM.

Regarding `Cc1csc(CNC(=O)C2CC(C(=O)Nc3ccc(F)c(Cl)c3)N(C)S(=O)(=O)N2)n1` (single isomer, unassigned) [Compound 686-ISOMER-B, N3-(3-chloro-4-fluoro-phenyl)-2-methyl-N5-[(4-methylthiazol-2-yl)methyl]-1,1-dioxo-1,2,6-thiadiazinane-3,5-dicarboxamide], the concentration for a half-maximal effect (EC50) is less than 50 nM.

For `CC(C)OC(=O)N1CCC(NC(=O)C2CC(C(=O)Nc3ccc(F)c(Cl)c3)N(C)S(=O)(=O)N2)CC1` (single isomer, unassigned) [Compound 766-ISOMER-B, isopropyl 4-[[5-[(3-chloro-4-fluoro-phenyl)carbamoyl]-6-methyl-1,1-dioxo-1,2,6-thiadiazinane-3-carbonyl]amino]piperidine-1-carboxylate], the EC50 lay in the range of 50 to 100 nM.

Staying with this test, now noted: Hepatitis B virus, HePAD38, 120 h, 5 days incubation, qPCR of supernatant HBV DNA vs DMSO control, read-out: viral load lowering EC50 (Activity).
As for `Cc1nc(-c2ccccc2F)sc1[C@@H](NC(=O)C1CC(C(=O)Nc2ccc(F)c(Cl)c2)N(C)S(=O)(=O)N1)c1ccccc1` (single isomer, unassigned) [1101-ISOMER-B], the 50% effective concentration (EC50) fell in the range of 100 to 10000 nM.

For the compound `COc1ccccc1-c1ncc(CNC(=O)C2CC(C(=O)Nc3ccc(F)c(Cl)c3)N(C)S(=O)(=O)N2)s1` (single isomer, unassigned) [Compound 987-ISOMER-A, N3-(3-chloro-4-fluoro-phenyl)-N5-[[2-(2-methoxyphenyl)thiazol-5-yl]methyl]-2-methyl-1,1-dioxo-1,2,6-thiadiazinane-3,5-dicarboxamide], the EC50 was less than 50 nM.

Consider `CN1C(C(=O)Nc2ccc(F)c(Cl)c2)CC(C(=O)NCc2nc3ccccc3s2)NS1(=O)=O` (single isomer, unassigned) [Compound 689-ISOMER-A, N5-(1,3-benzothiazol-2-ylmethyl)-N3-(3-chloro-4-fluoro-phenyl)-2-methyl-1,1-dioxo-1,2,6-thiadiazinane-3,5-dicarboxamide], for which the half-maximal effective concentration (EC50) was in the range of 100 to 10000 nM.

As for `CN1C(C(=O)Nc2ccc(F)c(Cl)c2)CC(C(=O)NCc2csc(Cl)n2)NS1(=O)=O` (stereo not shown) [Compound 1006], the EC50 is 50 to 100 nM.

As to `CN1C(C(=O)Nc2ccc(F)c(Cl)c2)CC(C(=O)NCC2CCCCC2)NS1(=O)=O` (single isomer, unassigned) [1160-ISOMER-A, N3-(3-chloro-4-fluoro-phenyl)-N5-(cyclohexylmethyl)-2-methyl-1,1-dioxo-1,2,6-thiadiazinane-3,5-dicarboxamide], the concentration for a half-maximal effect (EC50) fell in the range of 50 to 100 nM.

For the compound `CN1C(C(=O)Nc2ccc(F)c(Cl)c2)CC(C(=O)NC2CCN(c3ncccn3)CC2)NS1(=O)=O` (single isomer, unassigned) [Compound 855-ISOMER-A, N3-(3-chloro-4-fluoro-phenyl)-2-methyl-1,1-dioxo-N5-(1-pyrimidin-2-yl-4-piperidyl)-1,2,6-thiadiazinane-3,5-dicarboxamide], the EC50 is less than 50 nM.

For `CN1C(C(=O)Nc2ccc(F)c(Cl)c2)CC(C(=O)NCc2ccccc2Cl)NS1(=O)=O` (stereo not shown) [Compound 820], the EC50 is less than 50 nM.

For the compound `CN1C(C(=O)Nc2ccc(F)c(Cl)c2)CC(C(=O)NC2CCOC2)NS1(=O)=O` (stereo not shown) [Compound 706], the EC50 was in the range of 100 to 10000 nM.

Consider `CN1C(C(=O)Nc2ccc(F)c(Cl)c2)CC(C(=O)NC2CCN(c3cc(Cl)ccn3)CC2)NS1(=O)=O` (stereo not shown) [Compound 974], for which the EC50 is less than 50 nM.

Turning to `Cc1c(CNC(=O)C2CC(C(=O)Nc3ccc(F)c(Cl)c3)N(C)S(=O)(=O)N2)nnn1-c1ccccc1` (stereo not shown) [Compound 1148], the EC50 is 100 to 10000 nM.

Turning to `CN1C(C(=O)Nc2ccc(F)c(Cl)c2)CC(C(=O)NCc2cnc(N)s2)NS1(=O)=O` (single isomer, unassigned) [1132-ISOMER-A, N5-[(2-aminothiazol-5-yl)methyl]-N3-(3-chloro-4-fluoro-phenyl)-2-methyl-1,1-dioxo-1,2,6-thiadiazinane-3,5-dicarboxamide], the EC50 fell in the range of 50 to 100 nM.

As to `CN1C(C(=O)Nc2ccc(F)c(Cl)c2)CC(C(=O)NC2CCN(c3ncccn3)CC2)NS1(=O)=O` (stereo not shown) [Compound 855], the EC50 is less than 50 nM.

Turning to `Cc1nc(CNC(=O)C2CC(C(=O)Nc3ccc(F)c(Cl)c3)N(C)S(=O)(=O)N2)sc1Br` (stereo not shown) [Compound 1069], the concentration for a half-maximal effect (EC50) was less than 50 nM.

Turning to `CN1C(C(=O)Nc2ccc(F)c(Cl)c2)CC(C(=O)N[C@@H](c2ccccc2)c2cnc(-c3ccccc3Cl)s2)NS1(=O)=O` (single isomer, unassigned) [1068-ISOMER-B], the concentration giving a half-maximal response (EC50) is 50 to 100 nM.

Turning to `CN1C(C(=O)Nc2ccc(F)c(Cl)c2)CC(C(=O)NCc2cnc(-c3ccc(C(F)(F)F)cc3)s2)NS1(=O)=O` (stereo not shown) [Compound 915], the EC50 was in the range of 100 to 10000 nM.

For `CN1C(C(=O)Nc2ccc(F)c(Cl)c2)CC(C(=O)NCc2cnc(C(F)(F)F)s2)NS1(=O)=O` (stereo not shown) [Compound 498], the 50% effective concentration (EC50) lay within 100 to 10000 nM.

`CN1C(C(=O)Nc2ccc(F)c(Cl)c2)CC(C(=O)NC2CCCCC2)NS1(=O)=O` (stereo not shown) [Compound 728]: the half-maximal effective concentration (EC50) fell in the range of 100 to 10000 nM.

For the compound `CN1C(C(=O)Nc2ccc(F)c(Cl)c2)CC(C(=O)NC(c2ccccc2)c2cnc(-c3ccccc3Cl)s2)NS1(=O)=O` (stereo not shown) [Compound 1068], the half-maximal effective concentration (EC50) was in the range of 50 to 100 nM.

In the case of `CN1C(C(=O)Nc2ccc(F)c(C#N)c2)CC(C(=O)NC2CC2c2ccccc2)NS1(=O)=O` (stereo not shown) [Compound 826], the EC50 is 100 to 10000 nM.

For `CN1C(C(=O)Nc2ccc(F)c(Cl)c2)CC(C(=O)NCc2cnc(-c3ccc(C#N)cc3F)s2)NS1(=O)=O` (stereo not shown) [Compound 920], the half-maximal effective concentration (EC50) was less than 50 nM.

Turning to `Cc1cn(-c2ccccc2)nc1CNC(=O)C1CC(C(=O)Nc2ccc(F)c(Cl)c2)N(C)S(=O)(=O)N1` (single isomer, unassigned) [1057-ISOMER-A, N3-(3-chloro-4-fluoro-phenyl)-2-methyl-N5-[(4-methyl-1-phenyl-pyrazol-3-yl)methyl]-1,1-dioxo-1,2,6-thiadiazinane-3,5-dicarboxamide], the 50% effective concentration (EC50) is less than 50 nM.

`Cc1sc(N2CCC(NC(=O)C3CC(C(=O)Nc4ccc(F)c(Cl)c4)N(C)S(=O)(=O)N3)CC2)nc1C(=O)N(C)C` (stereo not shown) [Compound 1093]: the half-maximal effective concentration (EC50) was less than 50 nM.

For `Cc1cnn(-c2ccccc2)c1CNC(=O)C1CC(C(=O)Nc2ccc(F)c(Cl)c2)N(C)S(=O)(=O)N1` (stereo not shown) [Compound 1104], the EC50 is less than 50 nM.

With `CN1C(C(=O)Nc2ccc(F)c(Cl)c2)CC(C(=O)NC2CCN(C(=O)OCCN3CCCCC3)CC2)NS1(=O)=O` (stereo not shown) [Compound 963], the 50% effective concentration (EC50) lay within 100 to 10000 nM.

Turning to `CN1C(C(=O)Nc2ccc(F)c(Cl)c2)CC(C(=O)NCc2nn(-c3ccccc3Cl)c3ccccc23)NS1(=O)=O` (stereo not shown) [Compound 1073], the half-maximal effective concentration (EC50) was less than 50 nM.

For `Cc1nc(-c2ccccc2Cl)sc1CNC(=O)C1CC(C(=O)Nc2ccc(F)c(Cl)c2)N(C)S(=O)(=O)N1` (stereo not shown) [Compound 1015], the EC50 was less than 50 nM.

On to `CN1C(C(=O)Nc2ccc(F)c(Cl)c2)CC(C(=O)NCc2sc(-c3ccccc3F)nc2C(F)(F)F)NS1(=O)=O` (single isomer, unassigned) [1082-ISOMER-A, N3-(3-chloro-4-fluoro-phenyl)-N5-[[2-(2-fluorophenyl)-4-(trifluoromethyl)thiazol-5-yl]methyl]-2-methyl-1,1-dioxo-1,2,6-thiadiazinane-3,5-dicarboxamide], for which the half-maximal effective concentration (EC50) is less than 50 nM.

For `CN1C(C(=O)Nc2ccc(F)c(Cl)c2)CC(C(=O)NCc2cnc(C3=CCC(C)(C)C3)s2)NS1(=O)=O` (stereo not shown) [Compound 1205], the EC50 was in the range of 100 to 10000 nM.

One may read the EC50 as the concentration that produces a half-maximal response.
